Data as given in PubChem BioAssay (NCI).
Where “and” joins values, the source holds several entries; their conditions need not be identical. Equal entries are not always repeated.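 Briefly, cells in 96-well plates were exposed to five compound concentrations for 48 h, and endpoints were estimated by linear interpolation. GI50 marks 50% less growth. TGI: concentration producing complete growth inhibition.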

Experiments:
Experiment in all cases: growth of human tumour cells (NCI), 48 h
HCC-2998 colon = test system: HCC-2998 colon
HOP-92 NSCLC = test system: HOP-92 NSCLC
OVCAR-4 ovarian = test system: OVCAR-4 ovarian
SF-295 CNS = test system: SF-295 CNS
SK-MEL-5 melanoma = test system: SK-MEL-5 melanoma
SK-OV-3 ovarian = test system: SK-OV-3 ovarian
SNB-19 CNS = test system: SNB-19 CNS
TK-10 renal = test system: TK-10 renal
UACC-257 melanoma = test system: UACC-257 melanoma
UACC-62 melanoma = test system: UACC-62 melanoma

Cc1cc(C)c2c(=O)n(CC(O)CN3CCN(c4ncccn4)CC3)sc2n1 (stereo not drawn)
TGI (HCC-2998 colon): 32.9 µM | TGI (HOP-92 NSCLC): > 100 µM | TGI (OVCAR-4 ovarian): 37.3 µM | TGI (SF-295 CNS): > 100 µM | TGI (SK-MEL-5 melanoma): 35.5 µM | TGI (SK-OV-3 ovarian): 32.8 µM | TGI (SNB-19 CNS): > 100 µM | TGI (TK-10 renal): 32.1 µM | TGI (UACC-257 melanoma): 30.4 µM | TGI (UACC-62 melanoma): 31.6 µM

COC(=O)c1ccc2c(c1)CCN2C(=O)c1cc2c(cc1Br)OCO2
GI50 (HCC-2998 colon): 21.2 µM | GI50 (HOP-92 NSCLC): 0.432 µM | TGI (HOP-92 NSCLC): 50 µM and 40.3 µM | GI50 (OVCAR-4 ovarian): 4.88 µM | TGI (OVCAR-4 ovarian): 50 µM and > 100 µM | GI50 (SF-295 CNS): 0.683 µM | TGI (SF-295 CNS): 50 µM and > 100 µM | GI50 (SK-MEL-5 melanoma): 0.581 µM | TGI (SK-MEL-5 melanoma): 5.5 µM and 14.1 µM | TGI (SK-OV-3 ovarian): > 100 µM | GI50 (SNB-19 CNS): 1.31 µM | TGI (SNB-19 CNS): 12.8 µM and > 100 µM | GI50 (TK-10 renal): 27.1 µM | TGI (TK-10 renal): 37.6 µM and > 100 µM | GI50 (UACC-257 melanoma): 16.6 µM | TGI (UACC-257 melanoma): 18.8 µM and 75.1 µM | GI50 (UACC-62 melanoma): 0.995 µM | TGI (UACC-62 melanoma): 50 µM and > 100 µM

CCOC(=O)C(C(N)=O)c1nc2cc([N+](=O)[O-])ccc2nc1/C=C(\O)c1ccc(C)cc1 (stereo not drawn)
TGI (HCC-2998 colon): 62.7 µM | TGI (HOP-92 NSCLC): 40.8 µM | TGI (OVCAR-4 ovarian): > 100 µM | TGI (SF-295 CNS): 43.6 µM | TGI (SK-MEL-5 melanoma): > 100 µM | TGI (SK-OV-3 ovarian): 39.4 µM | TGI (SNB-19 CNS): 48.3 µM | TGI (TK-10 renal): 30.2 µM | TGI (UACC-257 melanoma): > 100 µM | TGI (UACC-62 melanoma): > 72.3 µM

O=C1CCCc2ccc3c(c21)CC1(Cc2cc4c(cc2C1)CCCC4)C3
TGI (HCC-2998 colon): > 100 µM | TGI (HOP-92 NSCLC): 28 µM | TGI (OVCAR-4 ovarian): 50.9 µM | TGI (SF-295 CNS): 75.7 µM | TGI (SK-MEL-5 melanoma): 26.2 µM | TGI (SK-OV-3 ovarian): > 100 µM | TGI (SNB-19 CNS): 91.7 µM | TGI (TK-10 renal): 46.2 µM | TGI (UACC-257 melanoma): 47.8 µM | TGI (UACC-62 melanoma): 49.2 µM

N#CCCN(CCN(CCN(C(=O)Nc1ccccc1)c1ccccc1)C(=O)Nc1ccccc1)C(=O)Nc1ccccc1
TGI (HCC-2998 colon): > 100 µM | TGI (HOP-92 NSCLC): > 100 µM | TGI (OVCAR-4 ovarian): > 100 µM | TGI (SF-295 CNS): > 100 µM | TGI (SK-MEL-5 melanoma): > 100 µM | TGI (SK-OV-3 ovarian): > 100 µM | TGI (SNB-19 CNS): > 100 µM | TGI (TK-10 renal): > 100 µM | TGI (UACC-257 melanoma): > 100 µM | TGI (UACC-62 melanoma): > 100 µM

CCCCc1ccc(Nc2nc(N)c3[nH]cnc3n2)cc1
TGI (HCC-2998 colon): 46.4 µM | TGI (HOP-92 NSCLC): 33.3 µM | TGI (OVCAR-4 ovarian): 60.4 µM | TGI (SF-295 CNS): 68.8 µM | TGI (SK-MEL-5 melanoma): 30.9 µM | TGI (SK-OV-3 ovarian): 52.7 µM | TGI (SNB-19 CNS): 37.8 µM | TGI (TK-10 renal): 43.2 µM | TGI (UACC-257 melanoma): 47.4 µM | TGI (UACC-62 melanoma): 35.3 µM

NC(=O)c1ncn(C2CCC(CP(=O)(O)O)C2)c1N (stereo not drawn)
TGI (HCC-2998 colon): > 100 µM | TGI (HOP-92 NSCLC): > 100 µM | TGI (OVCAR-4 ovarian): > 100 µM | TGI (SF-295 CNS): > 100 µM | TGI (SK-MEL-5 melanoma): > 100 µM | TGI (SK-OV-3 ovarian): > 100 µM | TGI (SNB-19 CNS): > 100 µM | TGI (TK-10 renal): > 100 µM | TGI (UACC-257 melanoma): > 100 µM | TGI (UACC-62 melanoma): > 100 µM

O=C(O)c1cc(/C=C/c2ccc(O)c(O)c2)ccc1O
TGI (HCC-2998 colon): > 100 µM | TGI (HOP-92 NSCLC): > 100 µM | TGI (OVCAR-4 ovarian): > 100 µM | TGI (SF-295 CNS): > 100 µM | TGI (SK-MEL-5 melanoma): > 100 µM | TGI (SK-OV-3 ovarian): > 100 µM | TGI (SNB-19 CNS): > 100 µM | TGI (TK-10 renal): > 100 µM | TGI (UACC-257 melanoma): > 100 µM | TGI (UACC-62 melanoma): > 100 µM

Brc1ccc2c(c1)[C@H]1CCc3c([nH]c4ccccc34)[C@H]1N2
TGI (HCC-2998 colon): 25.5 µM | TGI (HOP-92 NSCLC): 26.3 µM | TGI (OVCAR-4 ovarian): 26.3 µM | TGI (SF-295 CNS): 24.5 µM | TGI (SK-MEL-5 melanoma): 12.1 µM | TGI (SK-OV-3 ovarian): 27.5 µM | TGI (SNB-19 CNS): 27 µM | TGI (TK-10 renal): 23.3 µM | TGI (UACC-257 melanoma): 25.6 µM | TGI (UACC-62 melanoma): 24 µM

CC(CCC(=O)O)(c1cc(Br)c(O)c(Br)c1)c1cc(Br)c(O)c(Br)c1
TGI (HCC-2998 colon): 86.3 µM | TGI (HOP-92 NSCLC): > 100 µM | TGI (OVCAR-4 ovarian): > 100 µM | TGI (SF-295 CNS): > 100 µM | TGI (SK-MEL-5 melanoma): 88.3 µM | TGI (SK-OV-3 ovarian): > 100 µM | TGI (SNB-19 CNS): > 100 µM | TGI (TK-10 renal): > 100 µM | TGI (UACC-257 melanoma): > 100 µM | TGI (UACC-62 melanoma): > 100 µM

CCCCOP(=O)(OCCCC)C(NS(=O)(=O)c1ccccc1)(C(=O)OCC)C(F)(F)F (stereo not drawn)
TGI (HCC-2998 colon): > 100 µM | TGI (HOP-92 NSCLC): 71.8 µM | TGI (OVCAR-4 ovarian): 94.9 µM | TGI (SF-295 CNS): > 100 µM | TGI (SK-MEL-5 melanoma): 33.9 µM | TGI (SK-OV-3 ovarian): > 100 µM | TGI (SNB-19 CNS): > 100 µM | TGI (TK-10 renal): 87.6 µM | TGI (UACC-257 melanoma): 79.3 µM | TGI (UACC-62 melanoma): > 100 µM

CC(C)=CCC[C@@H](C)c1c(O)c(O)c(C)c2nc3ccccc3nc12
TGI (HCC-2998 colon): 22.2 µM | TGI (HOP-92 NSCLC): 5.11 µM | TGI (OVCAR-4 ovarian): 19.9 µM | TGI (SF-295 CNS): 4.93 µM | TGI (SK-MEL-5 melanoma): 10.6 µM | TGI (SK-OV-3 ovarian): 21.7 µM | TGI (SNB-19 CNS): 15.5 µM | TGI (TK-10 renal): 17 µM | TGI (UACC-257 melanoma): 12.7 µM | TGI (UACC-62 melanoma): 6.72 µM

C(=C/c1ccc2nc(-c3ccc(/C=C/C=N/NC4=NCCCN4)cc3)cn2c1)/C=N/NC1=NCCCN1
TGI (HCC-2998 colon): > 100 µM | TGI (HOP-92 NSCLC): > 100 µM | TGI (OVCAR-4 ovarian): > 100 µM | TGI (SF-295 CNS): > 100 µM | TGI (SK-MEL-5 melanoma): > 100 µM | TGI (SK-OV-3 ovarian): > 100 µM | TGI (SNB-19 CNS): > 100 µM | TGI (TK-10 renal): > 100 µM | TGI (UACC-257 melanoma): > 100 µM | TGI (UACC-62 melanoma): > 100 µM

CCOC(=O)n1c2ccccc2c2c(O)c(OC)c3c(c21)C(=O)NC3=O
TGI (HCC-2998 colon): > 100 µM | TGI (HOP-92 NSCLC): > 100 µM | TGI (OVCAR-4 ovarian): > 100 µM | TGI (SF-295 CNS): > 100 µM | TGI (SK-MEL-5 melanoma): > 100 µM | TGI (SK-OV-3 ovarian): > 100 µM | TGI (SNB-19 CNS): > 100 µM | TGI (TK-10 renal): > 100 µM | TGI (UACC-257 melanoma): > 100 µM | TGI (UACC-62 melanoma): > 100 µM

NCCCCN(CCCN)C(=O)OCc1ccccc1
TGI (HCC-2998 colon): > 100 µM | TGI (HOP-92 NSCLC): > 100 µM | TGI (OVCAR-4 ovarian): > 100 µM | TGI (SF-295 CNS): > 100 µM | TGI (SK-MEL-5 melanoma): > 100 µM | TGI (SK-OV-3 ovarian): > 100 µM | TGI (SNB-19 CNS): > 100 µM | TGI (TK-10 renal): > 100 µM | TGI (UACC-257 melanoma): > 100 µM | TGI (UACC-62 melanoma): > 100 µM

CC1CCC(O)/C=C/C(=O)OC(C)C(O)/C=C/C(=O)O1 (stereo not drawn)
TGI (HCC-2998 colon): > 100 µM | TGI (HOP-92 NSCLC): > 100 µM | TGI (OVCAR-4 ovarian): > 100 µM | TGI (SF-295 CNS): > 100 µM | TGI (SK-MEL-5 melanoma): > 100 µM | TGI (SK-OV-3 ovarian): > 100 µM | TGI (SNB-19 CNS): > 100 µM | TGI (TK-10 renal): > 100 µM | TGI (UACC-257 melanoma): > 100 µM | TGI (UACC-62 melanoma): > 100 µM
